Test results from US20090247477A1, “Methods of suppressing uv light-induced skin carcinogenesis” (priority 2005, published 2009).

Key:
[1] = tested on: UVB radiation-induced skin tumors; experiment: UVB-induced skin carcinogenesis in high-risk mice, dietary treatment; format: in vivo, mouse; conditions: vs control
Protocol: Seeds of broccoli (Brassica oleracea italica, cv. DeCicco) were used to grow sprouts as described in Example 1. Growth was arrested after 3 days by plunging sprouts into boiling water and allowed to boil for ˜30 min. This treatment inactivated the endogenous sprout myrosinase and extracted the glucosinolates. […] The powder was mixed with the mouse diet (powdered AIN 76A) to give the equivalent of 10 μmol (low dose) or 50 μmol (high dose) of glucoraphanin per 3 grams of diet.
Body weights and formation of tumors larger than 1 mm in diameter were determined weekly.
UVB radiation was provided by a bank of UV lamps (FS72T12-UVB-HO, National Biological Corporation, Twinsburg, Ohio) emitting UVB (280-320 nm, 65% of total energy) and UVA (320-375 nm, 35% of total energy). The radiant dose of UVB was quantified with a UVB Daavlin Flex Control Integrating Dosimeter and further calibrated with an IL-1400 radiometer (International Light, Newburyport, Mass.).
The animals were irradiated for 20 weeks on Tuesdays and Fridays with a radiant exposure of 30 mJ/cm^2/session. […]
Tumor volumes were determined by measuring the height, length, and width of each mass that was larger than 1 mm in diameter. The average of the three measurements was used as the diameter and the volume was calculated (v=4πr^3/3). All mice were euthanized on the same day and the size and multiplicity of tumors was determined. […]

PE murine keratinocytes = conditions: 5 μM for 24 h, UVA 10 J/cm^2, PE cells
Protocol: Reactive oxygen intermediates generated by the UV radiation were quantified by the fluorescent probe 2′,7′-dichlorodinitrofluorescein and fluorescence intensity was measured (expressed as a ratio of exposed to non-exposed cells).
PE cells (50,000 per well) were seeded into 24-well plates and grown for 48 h. […] On the day of the experiments, after removing the medium, the cells were incubated with 100 μM 2′,7′-dichlorodinitrofluorescein diacetate in 500 μl of fresh medium (Molecular Probes, Eugene, Oreg.) for 30 min. The medium containing the fluorescent probe was then removed, the cells were washed with DPBS, and exposed to UVA radiation (10 J/cm^2) Control cells were kept in the dark. Cells were detached with trypsin, suspended in 2.0 ml of DPBS, and the intensity of fluorescence was determined in cell suspensions at 520 nm with an excitation of 485 nm in 2-ml cuvettes in a Perkin-Elmer LS50 spectrofluorimeter.

glutathione = conditions: topical extract containing 1 μmol sulforaphane, 24 h, vs vehicle
From the text: Female SKH-1 hairless mice (4 weeks old) were obtained from Charles River Breeding Laboratories (Wilmington, Mass.) and were acclimatized in our animal facility for 2 weeks before the start of the experiment. The animals were kept on a 12-h light/12-h dark cycle, 35% humidity, and given free access to water and pelleted AIN 76A diet (Harlan TekLad, free of inducers). All animal experiments were in compliance with the National Institutes of Health Guidelines and were approved by the Johns Hopkins University Animal Care and Use Committee.
The animals were euthanized 24 h later and their dorsal skins were dissected using a rectangular template (2.5×5 cm) and frozen in liquid N2. […] Centrifugation at 14,000 g for 20 min at 4° C. yielded clear supernatant fractions, aliquots of which were used for determination of protein content, enzyme activity, and total glutathione levels as described below for the cell culture experiments.

C[S+]([O-])CCCC/C(=N\OS(=O)(=O)O)S[C@@H]1O[C@H](CO)[C@@H](O)[C@H](O)[C@H]1O (stereo partly shown) [glucoraphanin]
inhibition in total tumor volume per mouse ([1]; high dose): 70% | inhibition in total tumor volume per mouse ([1]; low dose): 70%

C[S+]([O-])CCCCN=C=S (stereo not shown) [sulforaphane]
reduction in reactive oxygen intermediates generated by UV radiation (PE murine keratinocytes): 50% | elevation of total glutathione levels in skin (glutathione): ~15%
